US9592229B2, “Potent anticancer activity via dual compound activation” (priority 2012, dated 2017)

How the values were obtained:
MCF-7 cells = assay: Protection by a pan-caspase inhibitor against PAC-1/1541B-mediated cell death; assay type: cell-based; settings: Q-VD-OPh 25 μM
From the text: The proapoptotic effect of the PAC-1/1541B combination was blocked with the pan-caspase inhibitor Q-VD-OPh, consistent with the involvement of caspases in the mode of cell death (FIG. 10).

[1] = system: EL4 (murine lymphoma) cells; assay: EL4 syngeneic murine tumor model; assay type: in vivo, C57/BL6 mice; settings: PAC-1 125 mg/kg in HPβCD once-a-day for three days; tumors weighed after 8 days
Protocol: EL4 cells (10 million cells per mouse) were injected subcutaneously into mice, the animals were split into four groups and treated with vehicle (2-hydroxypropyl-β-cyclodextrin, HPβCD), 1541B (at 17.5 mg/kg in HPβCD), PAC-1 (125 mg/kg in HPβCD), or 1541B+PAC-1 (17.5 and 125 mg/kg, respectively, in HPβCD). After eight days the mice were sacrificed and the tumors excised and weighed. Error bars equal standard error, and p-values indicated are relative to vehicle control.
To explore the therapeutic utility of this dual procaspase-3 activation strategy, the combination of PAC-1 and 1541B were examined in a murine tumor model.
C57/BL6 mice implanted with EL4 (murine lymphoma) cells were treated with PAC-1 alone (125 mg/kg), 1541B alone (17.5 mg/kg), and PAC-1+1541B (125 mg/kg and 17.5 mg/kg, respectively) once-a-day for three days.

[2] = system: procaspase-3 in U-937, A549, BT-549 cell lines; assay: Western blot of procaspase-3 cleavage to caspase-3 in cancer cell lines; assay type: cell-based, human
From the text: FIG. 5. PAC-1/1541B combinations induce rapid and dramatic procaspase-3 maturation and activation. A: The caspase-3/-7-like activity of cancer cell lysates after treatment with the PAC-1/1541B combinations. STS=staurosporine. B: Western blot of various cancer cell lines (using Cell Signaling caspase-3 antibody) after treatment with combinations of PAC-1 and 1541B.
FIG. 6. Data analogous to FIG. 5B with A: HL-60 (human leukemia), B: EL4 (murine lymphoma), C: Hs578T (human breast cancer), and D: Jurkat (human leukemia) cell lines.
FIG. 13. Western blot procaspase3 activation analysis of U-937 cells treated with increasing concentrations of 1541B and either with or without PAC-1.
To determine if the elevation of DEVDase activity was the result of enhanced cleavage of procaspase-3 to caspase-3 facilitated by compound co-treatment, cells treated with PAC-1 and 1541B combinations were assessed by Western blot.
Rather 1541 operates by an allosteric binding and activation mechanism.

## CC(C)[C@H](NC(=O)c1ccc2ccccc2n1)C(=O)N[C@@H](CC(=O)O)C(=O)COc1c(F)cccc1F [Q-VD-OPh]
MCF-7 cells
  protection against PAC-1/1541B-mediated cell death: protects against PAC-1/1541B-mediated cell death

## C=CCc1cccc(/C=N/NC(=O)CN2CCN(Cc3ccccc3)CC2)c1O [PAC-1, 2-(4-benzylpiperazin-1-yl)-N-[(2-hydroxy-3-prop-2-enyl-phenyl)methylideneamino]acetamide]
[1]
  effect on tumor growth: only minimal effect
[2]
  activation of procaspase-3 to caspase-3 (Western blot): low/no procaspase-3 activation
